In US9340545B2, “Quinazolin-4 (3H)—one derivatives used as P13 kinase inhibitors” (Respivert Limited, priority 2011, dated 2016):

System: cigarette smoke-induced cell accumulation in murine BALF
Assay: Cigarette smoke model
Format: in vivo, A/J mice

C[C@@H]1C[C@H]2[C@@H]3CCC4=CC(=O)C=C[C@]4(C)[C@@]3(F)[C@@H](O)C[C@]2(C)[C@@]1(O)C(=O)CO [dexamethasone]
Activity in the cigarette smoke model (0.3-10 mg/kg, p.o.): inactive

CCC(=O)O[C@]1(C(=O)SCF)[C@H](C)C[C@H]2[C@@H]3C[C@H](F)C4=CC(=O)C=C[C@]4(C)[C@@]3(F)[C@@H](O)C[C@@]21C [fluticasone propionate]
Anti-inflammatory effect as monotherapy in the cigarette smoke model (monotherapy, at the dose used for co-administration (FP dosed at 50 μg/mL)): lacks any significant effect
